{"source": "patent EP0066373A1", "about": "“Beta-lactam derivatives, a process for their preparation and compositions containing them” (BEECHAM GROUP PLC, priority 1981, dated 1982)", "assay_type_in_all_cases": "cell-based", "key": {"[1]": {"tested_on": "Ps. aeruginosa NCTC 10662 10^-2", "assay": "Antibacterial activity (MIC), 10^-2", "conditions": "Pseudomonas aeruginosa"}, "E. coli ESS": {"tested_on": "E. coli ESS", "assay": "Antibacterial activity (MIC)", "conditions": "Escherichia coli, Agar"}, "E. coli JT 4": {"tested_on": "E. coli JT 4", "assay": "Antibacterial activity (MIC)", "conditions": "Escherichia coli, JT4, Agar"}, "S. marcescens US 32": {"tested_on": "S. marcescens US 32", "assay": "Antibacterial activity (MIC)", "conditions": "Serratia marcescens, US32, Agar"}, "E. cloacae N1": {"tested_on": "E. cloacae N1", "assay": "Antibacterial activity (MIC)", "conditions": "Enterobacter cloacae, Agar"}, "E. coli NCTC 10418": {"tested_on": "E. coli NCTC 10418", "assay": "Antibacterial activity (MIC)", "conditions": "Escherichia coli"}, "E. coli JT 425": {"tested_on": "E. coli JT 425", "assay": "Antibacterial activity (MIC)", "conditions": "Escherichia coli, JT425, Agar"}, "[2]": {"tested_on": "Ps. aeruginosa Dalgleish 10^-2", "assay": "Antibacterial activity (MIC), 10^-2", "conditions": "Pseudomonas aeruginosa, Agar"}, "K. aerogenes A": {"tested_on": "K. aerogenes A", "assay": "Antibacterial activity (MIC)", "conditions": "Klebsiella aerogenes"}, "[3]": {"tested_on": "Ps. aeurginosa NCTC 10662", "assay": "Antibacterial activity (MIC)"}, "P. mirabilis C 977": {"tested_on": "P. mirabilis C 977", "assay": "Antibacterial activity (MIC)", "conditions": "Proteus mirabilis, C977, Agar"}}, "data": [{"smiles": "CO[C@@]1(NC(=O)C(c2ccc(OC(C)=O)c(OC(C)=O)c2)S(=O)(=O)O)C(=O)N2[C@@H](C(=O)O)C(C)(C)S[C@@H]21", "note": "(stereo partly drawn) [Example 3, Disodium 6,β-[R,S-2-(3,4-diacetoxyphenyl)-2-sulphoacetamido]-6,a-methoxypenicillanate]", "values": [{"measurement": "MIC", "setting": "[1]; NCTC10662, Agar", "result": 2.5, "unit": "µg/mL"}, {"measurement": "MIC", "setting": "[1]; NCTC10662, Broth", "result": 5, "unit": "µg/mL"}, {"measurement": "MIC", "setting": "E. coli ESS", "result": 0.2, "unit": "µg/mL"}, {"measurement": "MIC", "setting": "E. coli JT 4", "result": 2.5, "unit": "µg/mL"}, {"measurement": "MIC", "setting": "S. marcescens US 32", "result": 25, "unit": "µg/mL"}, {"measurement": "MIC", "setting": "E. cloacae N1", "result": 50, "unit": "µg/mL"}, {"measurement": "MIC", "setting": "E. coli NCTC 10418; NCTC10418, Agar", "result": 2.5, "unit": "µg/mL"}, {"measurement": "MIC", "setting": "E. coli NCTC 10418; NCTC10418, Broth", "result": 5, "unit": "µg/mL"}, {"measurement": "MIC", "setting": "E. coli JT 425", "result": 2.5, "unit": "µg/mL"}, {"measurement": "MIC", "setting": "[2]", "result": 2.5, "unit": "µg/mL"}, {"measurement": "MIC", "setting": "K. aerogenes A; Agar", "result": 10, "unit": "µg/mL"}, {"measurement": "MIC", "setting": "K. aerogenes A; Broth", "result": 25, "unit": "µg/mL"}, {"measurement": "MIC", "setting": "[3]; Agar", "result": 2.5, "unit": "µg/mL"}, {"measurement": "MIC", "setting": "[3]; Broth", "result": 5, "unit": "µg/mL"}, {"measurement": "MIC", "setting": "P. mirabilis C 977", "result": 25, "unit": "µg/mL"}]}, {"smiles": "CO[C@@]1(NC(=O)C(c2ccc(O)c(O)c2)S(=O)(=O)O)C(=O)N2[C@@H](C(=O)O)C(C)(C)S[C@@H]21", "note": "(stereo partly drawn) [Example 4, Disodium 6,β-[R,S-2-(3,4-dihydroxyphenyl)-2-sulphoacetamido]-6,a-methoxypenicillanate]", "values": [{"measurement": "MIC", "setting": "[1]; NCTC10662, Agar", "result": 5, "unit": "µg/mL"}, {"measurement": "MIC", "setting": "E. coli ESS", "result": 0.5, "unit": "µg/mL"}, {"measurement": "MIC", "setting": "E. coli JT 4", "result": 5, "unit": "µg/mL"}, {"measurement": "MIC", "setting": "S. marcescens US 32", "result": 25, "unit": "µg/mL"}, {"measurement": "MIC", "setting": "E. cloacae N1", "result": 50, "unit": "µg/mL"}, {"measurement": "MIC", "setting": "E. coli NCTC 10418; NCTC10418, Agar", "result": 5, "unit": "µg/mL"}, {"measurement": "MIC", "setting": "E. coli JT 425", "result": 5, "unit": "µg/mL"}, {"measurement": "MIC", "setting": "[2]", "result": 2.5, "unit": "µg/mL"}, {"measurement": "MIC", "setting": "K. aerogenes A; Agar", "result": 5, "unit": "µg/mL"}, {"measurement": "MIC", "setting": "[3]; Agar", "result": 2.5, "unit": "µg/mL"}, {"measurement": "MIC", "setting": "P. mirabilis C 977", "result": 25, "unit": "µg/mL"}]}, {"smiles": "CO[C@@]1(NC(=O)[C@@H](c2ccc(OC(C)=O)c(OC(C)=O)c2)S(=O)(=O)O)C(=O)N2[C@@H](C(=O)O)C(C)(C)S[C@@H]21", "note": "[Example 8, Disodium 6,β-[R-2-(3,4-diacetoxyphenyl)-2-sulphoacetamido]-6,a-methoxypenicillanate]", "values": [{"measurement": "MIC", "setting": "[1]; NCTC10662, Agar", "result": 0.5, "unit": "µg/mL"}, {"measurement": "MIC", "setting": "[1]; NCTC10662, Broth", "result": 0.5, "unit": "µg/mL"}, {"measurement": "MIC", "setting": "E. coli ESS", "result": 0.2, "unit": "µg/mL"}, {"measurement": "MIC", "setting": "E. coli JT 4", "result": 2.5, "unit": "µg/mL"}, {"measurement": "MIC", "setting": "S. marcescens US 32", "result": 25, "unit": "µg/mL"}, {"measurement": "MIC", "setting": "E. cloacae N1", "result": 25, "unit": "µg/mL"}, {"measurement": "MIC", "setting": "E. coli NCTC 10418; NCTC10418, Agar", "result": 2.5, "unit": "µg/mL"}, {"measurement": "MIC", "setting": "E. coli NCTC 10418; NCTC10418, Broth", "result": 5, "unit": "µg/mL"}, {"measurement": "MIC", "setting": "E. coli JT 425", "result": 1, "unit": "µg/mL"}, {"measurement": "MIC", "setting": "[2]", "result": 0.5, "unit": "µg/mL"}, {"measurement": "MIC", "setting": "K. aerogenes A; Agar", "result": 5, "unit": "µg/mL"}, {"measurement": "MIC", "setting": "K. aerogenes A; Broth", "result": 10, "unit": "µg/mL"}, {"measurement": "MIC", "setting": "[3]; Agar", "result": 2.5, "unit": "µg/mL"}, {"measurement": "MIC", "setting": "[3]; Broth", "result": 1, "unit": "µg/mL"}, {"measurement": "MIC", "setting": "P. mirabilis C 977", "result": 10, "unit": "µg/mL"}]}, {"smiles": "CO[C@@]1(NC(=O)[C@@H](c2ccc(O)c(O)c2)S(=O)(=O)O)C(=O)N2[C@@H](C(=O)O)C(C)(C)S[C@@H]21", "note": "[Example 9, Disodium 6,β-[R-2-(3,4-dihydroxyphenyl)-2-sulphoacetamido] -6,a-methoxypenicillanate]", "values": [{"measurement": "MIC", "setting": "[1]; NCTC10662, Agar", "result": 0.5, "unit": "µg/mL"}, {"measurement": "MIC", "setting": "E. coli ESS", "result": 0.1, "unit": "µg/mL"}, {"measurement": "MIC", "setting": "E. coli JT 4", "result": 2.5, "unit": "µg/mL"}, {"measurement": "MIC", "setting": "S. marcescens US 32", "result": 25, "unit": "µg/mL"}, {"measurement": "MIC", "setting": "E. cloacae N1", "result": 50, "unit": "µg/mL"}, {"measurement": "MIC", "setting": "E. coli NCTC 10418; NCTC10418, Agar", "result": 2.5, "unit": "µg/mL"}, {"measurement": "MIC", "setting": "E. coli JT 425", "result": 1, "unit": "µg/mL"}, {"measurement": "MIC", "setting": "[2]", "result": 0.5, "unit": "µg/mL"}, {"measurement": "MIC", "setting": "K. aerogenes A; Agar", "result": 5, "unit": "µg/mL"}, {"measurement": "MIC", "setting": "[3]; Agar", "result": 2.5, "unit": "µg/mL"}, {"measurement": "MIC", "setting": "P. mirabilis C 977", "result": 25, "unit": "µg/mL"}]}]}
